In patent US20100074886A1, “CCR2 ANTAGONISTS FOR TREATMENT OF FIBROSIS” (priority 2006, published 2010):

What was measured:
non-fibrotic fibroblasts = assay: Profibrotic gene expression (real time PCR) after 24 hrs stimulation of non-fibrotic fibroblasts; assay type: cell-based, human
Source text: (§1) Cell lines were provided by Dr Cory Hogaboam at the University of Michigan. All of the primary fibroblast lines were isolated as previously described (Hogaboam et al. 1999 J Immunol 163(4):2193-201). Pulmonary fibroblasts were isolated from lung biopsies taken from UIP patients (n=4) and these are referred to as “fibrotic fibroblasts”. Fibroblasts were also isolated from lung tissue taken during lung tumor resection (n=5) and these samples were confirmed to be non-fibrotic by histological analysis. These non-fibrotic tissue derived fibroblasts are referred to as “non-fibrotic fibroblasts”.
(§2) Human lung fibroblasts were plated into 24 well plates (Costar, Corning, N.Y.) at 100,000 cells/well and allowed to adhere for 8 hours. The cells were then washed with PBS and cultured overnight in serum free media (DMEM with 1-Glutamine, Pen/Strep). Cells were then stimulated for 24 hrs in the presence or absence of TGFb-1 (1 or 10 ng/mL), PDGF-AB (20 or 200 ng/mL) or CCL2 (1 or 10 ng/mL). TGFb1, PDGF-AB and CCL2 were purchased from R&D Systems. Supernatants were removed and RNA was subsequently isolated using RNeasy Plus Mini-Kits (QIAGEN, Valencia, Calif.) as per manufacturer's instructions and RNA was reverse transcribed into cDNA using TaqManâ Reverse Transcription Reagents (Applied Biosystems, Foster City, Calif.). Profibrotic gene expression was determined by real time PCR using the Taqmanâ Universal PCR Master Mix (Applied Biosystems) and pre-developed Taqmanâ Gene Expression Assays (Applied Biosystems) as per manufacture's instructions.
(§3) Quantitative gene expression was calculated using the comparative CT method, where CT values are determined as the threshold cycle number for which gene expression is first detected. Fold changes in gene expression for the genes of interest were first normalized to the housekeeping gene 18S, giving ACT values. Fold changes in expression between fibrotic and non-fibrotic fibroblasts were calculated as: ΔCT(non-fibrotic)−ΔCT(fibrotic)=ΔΔCT, where the non-fibrotic gene expression served as the calibrator. Fold changes in gene expression due to in vitro stimulation were calculated by ΔΔCT=ΔCT(unstimulated)−ΔCT(stimulated), where the unstimulated sample served as calibrator. The calculation 2-ΔΔCT then gives a relative value for final fold change when compared to calibrator.

[1] = system: fibrotic fibroblasts (UIP patients); assay: Profibrotic gene expression (real time PCR) after 24 hrs stimulation of fibrotic fibroblasts; assay type: cell-based, human; conditions: for IL13Ra2 gene expression (FIG. 7B): fibroblasts, cell type not given; for CTGF gene expression (FIG. 5): fibrotic (UIP) fibroblasts; for TGFb1 gene expression (FIG. 4) / aSMA expression (FIG. 2) / increase in aSMA expression: fibrotic fibroblasts; for increase in aSMA expression: vs unstimulated
Source text: as §1, §2, §3

Substance	CTGF gene expression (FIG. 5) (non-fibrotic fibroblasts)	TGFb1 gene expression (FIG. 4) (non-fibrotic fibroblasts)	aSMA expression (FIG. 2) (non-fibrotic fibroblasts)	IL13Ra1 gene expression (FIG. 7A) ([1]; UIP fibroblasts)	TGFbRI gene expression (FIG. 6A) ([1]; UIP fibroblasts)	IL13Ra2 gene expression (FIG. 7B) [1]	CTGF gene expression (FIG. 5) [1]	TGFb1 gene expression (FIG. 4) [1]	aSMA expression (FIG. 2) [1]	increase in aSMA expression [1]	TGFbRII gene expression (FIG. 6B) ([1]; UIP fibroblasts)	procollagen I gene expression (FIG. 3A) ([1]; UIP fibroblasts)	procollagen III gene expression (FIG. 3B) ([1]; UIP fibroblasts)
TGFb1: transforming growth factor beta-1; purchased from R&D Systems, used as fibroblast stimulus	induced an increase	increased TGFβ1	induced aSMA	upregulated	greater effect on TGFbRI	upregulated	induced an increase	increased TGFβ1	induced aSMA	–	–	–	–
PDGF: platelet-derived growth factor alpha/beta; purchased from R&D Systems, used as fibroblast stimulus	–	–	only in the fibrotic fibroblasts	upregulated	–	upregulated	induced an increase	–	modest increase	less than 10 fold	–	–	–
CCL2: CC-chemokine ligand 2, Monocyte Chemoattractant Protein 1; purchased from R&D Systems, used as fibroblast stimulus	–	–	only induced an increase in aSMA expression in fibrotic fibroblasts	upregulated	–	upregulated	induced an increase	enhances TGFb1 gene expression	induced an increase	more than 10 fold	somewhat greater increase in TGFbRII	induces	induces
